≈ marks a conversion by molar mass, not a printed value. Calls of active or inactive are those of the source. No cut-off for these calls is given here.

We go through 3 compounds from ChEMBL document CHEMBL5537135, “Novel antimicrobial peptides modified with fluorinated sulfono-γ-AA having high stability and targeting multidrug-resistant bacteria infections” (Eur J Med Chem, 2024).

One experiment deals with Bacillus subtilis. Kind of experiment: Antimicrobial activity against Bacillus subtilis ATCC 23857 assessed as inhibition of visible bacterial growth incubated for 18 hrs by broth-dilution method. In kind it is functional.
Experiment [1] deals with Pseudomonas aeruginosa. Kind of experiment: Antimicrobial activity against multidrug-resistant Pseudomonas aeruginosa 156 assessed as inhibition of visible bacterial growth incubated for 18 hrs by broth-dilution method. It is filed as functional.
Another experiment relates to Salmonella typhimurium. In words: Antimicrobial activity against Salmonella typhimurium ATCC 14028 assessed as inhibition of visible bacterial growth incubated for 18 hrs by broth-dilution method. In kind it is functional, Salmonella enterica subsp. enterica serovar Typhimurium. The settings on record: Salmonella enterica.
Experiment [2] has as its system Staphylococcus aureus. Kind of experiment: Antimicrobial activity against methicillin-resistant Staphylococcus aureus ATCC 33591 assessed as inhibition of visible bacterial growth incubated for 18 hrs by broth-dilution method. It is filed as functional.
Experiment [3] concerns Pseudomonas aeruginosa. In words: Antimicrobial activity against Pseudomonas aeruginosa ATCC 27853 assessed as inhibition of visible bacterial growth incubated for 18 hrs by broth-dilution method. In kind it is functional.
The test system of the next experiment is Acinetobacter baumannii. Kind of experiment: Antimicrobial activity against Acinetobacter baumannii ATCC 19606 assessed as inhibition of visible bacterial growth incubated for 18 hrs by broth-dilution method. It is filed as functional.
In experiment [4] the test system is Pseudomonas aeruginosa. Kind of experiment: Antimicrobial activity against multidrug-resistant Pseudomonas aeruginosa 124 assessed as inhibition of visible bacterial growth incubated for 18 hrs by broth-dilution method. It is filed as functional.
Experiment [5] deals with Pseudomonas aeruginosa. Kind of experiment: Antimicrobial activity against multidrug-resistant Pseudomonas aeruginosa 516 assessed as inhibition of visible bacterial growth incubated for 18 hrs by broth-dilution method. It is filed as functional.
Experiment [6] has as its system Pseudomonas aeruginosa. Kind of experiment: Antimicrobial activity against multidrug-resistant Pseudomonas aeruginosa 061 assessed as inhibition of visible bacterial growth incubated for 18 hrs by broth-dilution method. In kind it is functional.
The subject of experiment [7] is Pseudomonas aeruginosa. In words: Antimicrobial activity against multidrug-resistant Pseudomonas aeruginosa 125 assessed as inhibition of visible bacterial growth incubated for 18 hrs by broth-dilution method. In kind it is functional.
In a further experiment the test system is Escherichia coli. In words: Antimicrobial activity against Escherichia coli ATCC 25922 assessed as inhibition of visible bacterial growth incubated for 18 hrs by broth-dilution method. In kind it is functional.
In experiment [8] the test system is Pseudomonas aeruginosa. Kind of experiment: Antimicrobial activity against multidrug-resistant Pseudomonas aeruginosa 157 assessed as inhibition of visible bacterial growth incubated for 18 hrs by broth-dilution method. It is filed as functional.
In experiment [9] the test system is Pseudomonas aeruginosa. Kind of experiment: Antimicrobial activity against multidrug-resistant Pseudomonas aeruginosa 073 assessed as inhibition of visible bacterial growth incubated for 18 hrs by broth-dilution method. In kind it is functional.
Experiment [10] concerns Pseudomonas aeruginosa. Kind of experiment: Antimicrobial activity against multidrug-resistant Pseudomonas aeruginosa 085 assessed as inhibition of visible bacterial growth incubated for 18 hrs by broth-dilution method. It is filed as functional.
In experiment [11] the test system is Pseudomonas aeruginosa. Kind of experiment: Antibacterial activity against antibiotics-resistant Pseudomonas aeruginosa […] assessed as reduction in microbial growth. It is filed as functional.
In experiment [12] the test system is Staphylococcus aureus. Kind of experiment: Antimicrobial activity against Staphylococcus aureus ATCC 25923 assessed as inhibition of visible bacterial growth incubated for 18 hrs by broth-dilution method. In kind it is functional.
Experiment [13] deals with Pseudomonas aeruginosa. Kind of experiment: Antimicrobial activity against multidrug-resistant Pseudomonas aeruginosa 119 assessed as inhibition of visible bacterial growth incubated for 18 hrs by broth-dilution method. It is filed as functional.
Experiment [14] concerns Pseudomonas aeruginosa. In words: Antibacterial activity against Pseudomonas aeruginosa ATCC 27853 infected in C57BL/6 mouse pneumonia model assessed as log reduction in bacterial load in lung at 5 mg/kg, ip administered for 1 to 48 hrs and measured after 3 days. In kind it is functional. The settings on record: time 1-120 hrs.
In experiment [15] the test system is Staphylococcus aureus. Kind of experiment: Antibacterial activity against antibiotics-resistant Staphylococcus aureus ATCC 33591 assessed as reduction in microbial growth. It is filed as functional.
The subject of experiment [16] is Pseudomonas aeruginosa. Kind of experiment: Antimicrobial activity against multidrug-resistant Pseudomonas aeruginosa 050 assessed as inhibition of visible bacterial growth incubated for 18 hrs by broth-dilution method. It is filed as functional.
In experiment [17] the test system is Staphylococcus epidermidis. Kind of experiment: Antimicrobial activity against Staphylococcus epidermidis ATCC 12228 assessed as inhibition of visible bacterial growth incubated for 18 hrs by broth-dilution method. It is filed as functional.
Experiment [18] relates to Staphylococcus aureus. Kind of experiment: Antimicrobial activity against methicillin-resistant Staphylococcus aureus 4 assessed as inhibition of visible bacterial growth incubated for 18 hrs by broth-dilution method. It is filed as functional.
Experiment [19] has as its system Staphylococcus aureus. Kind of experiment: Antimicrobial activity against methicillin-resistant Staphylococcus aureus 8 assessed as inhibition of visible bacterial growth incubated for 18 hrs by broth-dilution method. It is filed as functional.
Experiment [20] deals with Staphylococcus aureus. Kind of experiment: Antimicrobial activity against methicillin-resistant Staphylococcus aureus 5 assessed as inhibition of visible bacterial growth incubated for 18 hrs by broth-dilution method. It is filed as functional.
The test system of experiment [21] is Staphylococcus aureus. Kind of experiment: Antimicrobial activity against methicillin-resistant Staphylococcus aureus 6 assessed as inhibition of visible bacterial growth incubated for 18 hrs by broth-dilution method. It is filed as functional.
In experiment [22] the test system is Staphylococcus aureus. Kind of experiment: Antimicrobial activity against methicillin-resistant Staphylococcus aureus 10 assessed as inhibition of visible bacterial growth incubated for 18 hrs by broth-dilution method. It is filed as functional.
Experiment [23] relates to Staphylococcus aureus. Kind of experiment: Antimicrobial activity against methicillin-resistant Staphylococcus aureus 3 assessed as inhibition of visible bacterial growth incubated for 18 hrs by broth-dilution method. It is filed as functional.
Experiment [24] deals with Staphylococcus aureus. Kind of experiment: Antimicrobial activity against methicillin-resistant Staphylococcus aureus 9 assessed as inhibition of visible bacterial growth incubated for 18 hrs by broth-dilution method. In kind it is functional.
Experiment [25] relates to Staphylococcus aureus. In words: Antimicrobial activity against methicillin-resistant Staphylococcus aureus 1 assessed as inhibition of visible bacterial growth incubated for 18 hrs by broth-dilution method. In kind it is functional.
The subject of experiment [26] is Staphylococcus aureus. In words: Antimicrobial activity against methicillin-resistant Staphylococcus aureus 2 assessed as inhibition of visible bacterial growth incubated for 18 hrs by broth-dilution method. In kind it is functional.
The subject of experiment [27] is Staphylococcus aureus. In words: Antimicrobial activity against methicillin-resistant Staphylococcus aureus 7 assessed as inhibition of visible bacterial growth incubated for 18 hrs by broth-dilution method. It is filed as functional.
The subject of experiment [28] is Staphylococcus aureus. In words: Antibacterial activity against methicillin-resistant Staphylococcus aureus ATCC 33591 infected in full-thickness wound BALB/c mouse model assessed as reduction in inflammatory infiltration at 1 mg/kg, ip administered for 1 to 48 hrs and measured after 3 days. It is filed as functional, organism-based. The settings on record: time 1-120 hrs.

As a reminder, the MIC is the lowest concentration found to suppress growth. Consider `CC(C)(O/N=C(\C(=O)N[C@@H]1C(=O)N2C(C(=O)[O-])=C(C[n+]3ccccc3)CS[C@H]12)c1csc(N)n1)C(=O)O` [CEFTAZIDIME], for which the MIC in the experiment with Bacillus subtilis came to 8 µg/mL (≈ 14.6 µM); in the experiment on Pseudomonas aeruginosa [1], 256 µg/mL (≈ 468 µM); in the experiment with Salmonella typhimurium, 256 µg/mL (≈ 468 µM); with Staphylococcus aureus [2], 258 µg/mL (≈ 472 µM); with Pseudomonas aeruginosa [3] it was 1 µg/mL (≈ 1.83 µM); in the experiment with Acinetobacter baumannii, 4 µg/mL (≈ 7.32 µM). For the same compound, the MIC in the experiment on Pseudomonas aeruginosa [4] amounted to 256 µg/mL (≈ 468 µM); in the experiment on Pseudomonas aeruginosa [5], 1 µg/mL (≈ 1.83 µM); in the experiment with Pseudomonas aeruginosa [6] it was 1 µg/mL (≈ 1.83 µM); in the experiment on Pseudomonas aeruginosa [7], 2 µg/mL (≈ 3.66 µM); with Escherichia coli, 1 µg/mL (≈ 1.83 µM); in the experiment with Pseudomonas aeruginosa [8], 1 µg/mL (≈ 1.83 µM). In addition, the MIC is 1 µg/mL (≈ 1.83 µM) with Pseudomonas aeruginosa [9]; 1 µg/mL (≈ 1.83 µM) with Pseudomonas aeruginosa [10]; 32 µg/mL in the experiment with Pseudomonas aeruginosa [11]; 4 µg/mL (≈ 7.32 µM) with Staphylococcus aureus [12]; 1 µg/mL (≈ 1.83 µM) in the experiment with Pseudomonas aeruginosa [13]; 32 µg/mL in the experiment on Staphylococcus aureus [15]. Moreover, the MIC was determined as 1 µg/mL (≈ 1.83 µM) with Pseudomonas aeruginosa [16] and 256 µg/mL (≈ 468 µM) in experiment [17]. Besides, in the experiment with Pseudomonas aeruginosa [14], the “log(activity)” value is reported as 4.75.
For `C[C@@H](O)[C@H]1C(=O)N2C(C(=O)O)=C(SCCNC=N)C[C@H]12` [IMIPENEM ANHYDROUS], the MIC in the experiment with Bacillus subtilis worked out at 1 µg/mL (≈ 3.34 µM); in the experiment on Pseudomonas aeruginosa [1], 4 µg/mL (≈ 13.4 µM); with Salmonella typhimurium, 1 µg/mL (≈ 3.34 µM); with Staphylococcus aureus [2], 32 µg/mL (≈ 107 µM); in the experiment on Pseudomonas aeruginosa [3] it was 2 µg/mL (≈ 6.68 µM); with Acinetobacter baumannii it was 1 µg/mL (≈ 3.34 µM). For the same compound, the MIC in the experiment with Staphylococcus aureus [18] came out at 1 µg/mL (≈ 3.34 µM); with Pseudomonas aeruginosa [4] it was 4 µg/mL (≈ 13.4 µM); in the experiment on Staphylococcus aureus [19], 1 µg/mL (≈ 3.34 µM); with Pseudomonas aeruginosa [5], 4 µg/mL (≈ 13.4 µM); with Pseudomonas aeruginosa [6], 2 µg/mL (≈ 6.68 µM); with Staphylococcus aureus [20] it was 1 µg/mL (≈ 3.34 µM). The MIC in the experiment with Staphylococcus aureus [21] worked out at 1 µg/mL (≈ 3.34 µM); in the experiment with Staphylococcus aureus [22], 1 µg/mL (≈ 3.34 µM); in the experiment on Staphylococcus aureus [23], 1 µg/mL (≈ 3.34 µM); in the experiment on Pseudomonas aeruginosa [7] it was 8 µg/mL (≈ 26.7 µM); with Escherichia coli, 1 µg/mL (≈ 3.34 µM); in the experiment with Pseudomonas aeruginosa [8] it was 2 µg/mL (≈ 6.68 µM). In addition, the MIC was determined as 4 µg/mL (≈ 13.4 µM) in the experiment on Pseudomonas aeruginosa [9]; 1 µg/mL (≈ 3.34 µM) with Staphylococcus aureus [24]; 8 µg/mL (≈ 26.7 µM) with Pseudomonas aeruginosa [10]; 32 µg/mL with Pseudomonas aeruginosa [11]; 1 µg/mL (≈ 3.34 µM) with Staphylococcus aureus [12]; 2 µg/mL (≈ 6.68 µM) with Pseudomonas aeruginosa [13]. For the same compound, the MIC with Staphylococcus aureus [25] was 1 µg/mL (≈ 3.34 µM); in the experiment on Staphylococcus aureus [15], 32 µg/mL; in the experiment on Pseudomonas aeruginosa [16], 8 µg/mL (≈ 26.7 µM); in experiment [17], 1 µg/mL (≈ 3.34 µM); in the experiment with Staphylococcus aureus [26] it was 1 µg/mL (≈ 3.34 µM); in the experiment with Staphylococcus aureus [27], 1 µg/mL (≈ 3.34 µM).
As for `CN[C@H](CC(C)C)C(=O)N[C@H]1C(=O)N[C@@H](CC(N)=O)C(=O)N[C@H]2C(=O)N[C@H]3C(=O)N[C@H](C(=O)N[C@H](C(=O)O)c4cc(O)cc(O)c4-c4cc3ccc4O)[C@H](O)c3ccc(c(Cl)c3)Oc3cc2cc(c3O[C@@H]2O[C@H](CO)[C@@H](O)[C@H](O)[C@H]2O[C@H]2C[C@](C)(N)[C@H](O)[C@H](C)O2)Oc2ccc(cc2Cl)[C@H]1O` [VANCOMYCIN], the MIC in the experiment on Bacillus subtilis amounted to 1 µg/mL (≈ 0.69 µM); in the experiment with Salmonella typhimurium, 128 µg/mL (≈ 88.3 µM); in the experiment on Pseudomonas aeruginosa [3] it was 256 µg/mL (≈ 177 µM); in the experiment on Acinetobacter baumannii it was 32 µg/mL (≈ 22.1 µM); with Escherichia coli, 256 µg/mL (≈ 177 µM). Besides, the outcome with Staphylococcus aureus [28] was Active.
